pIC50: −log10 of the molar value.
How the values were obtained:
Format in all cases: biochemical
PI3K-alpha = PI3K-alpha (Homo sapiens, UniProt P42336); assay: PI3K-alpha fluorescence polarization assay; settings: read-out: PI3Kα Avg. IC50
PI3K-gamma = PI3K-gamma (Homo sapiens, UniProt P48736); assay: PI3K-gamma fluorescence polarization assay; settings: PI3Kγ Avg. IC50
Outline: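 FP displacement read-out: 100 nM GST-GRP1 PH domain plus 5 nM BODIPY-TMR-IP4 added after EDTA stop. Preceding kinase step: 5 ng enzyme, diC8-PI(4,5)P2 2.5 μM, ATP 25 μM, MgCl2 2.5 mM, HEPES 5 mM pH 7, one hour, 25° C.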

human TOR = biological target: T1, human TOR (Homo sapiens, UniProt P42345); assay: mTOR enzyme assay (DELFIA, His6-S6K substrate); settings: read-out: mTOR Kinase Avg. IC50
T1 construct: FLAG

Chain of PI3K-gamma (P48736 whole entry, species assumed, the tested form may be a part): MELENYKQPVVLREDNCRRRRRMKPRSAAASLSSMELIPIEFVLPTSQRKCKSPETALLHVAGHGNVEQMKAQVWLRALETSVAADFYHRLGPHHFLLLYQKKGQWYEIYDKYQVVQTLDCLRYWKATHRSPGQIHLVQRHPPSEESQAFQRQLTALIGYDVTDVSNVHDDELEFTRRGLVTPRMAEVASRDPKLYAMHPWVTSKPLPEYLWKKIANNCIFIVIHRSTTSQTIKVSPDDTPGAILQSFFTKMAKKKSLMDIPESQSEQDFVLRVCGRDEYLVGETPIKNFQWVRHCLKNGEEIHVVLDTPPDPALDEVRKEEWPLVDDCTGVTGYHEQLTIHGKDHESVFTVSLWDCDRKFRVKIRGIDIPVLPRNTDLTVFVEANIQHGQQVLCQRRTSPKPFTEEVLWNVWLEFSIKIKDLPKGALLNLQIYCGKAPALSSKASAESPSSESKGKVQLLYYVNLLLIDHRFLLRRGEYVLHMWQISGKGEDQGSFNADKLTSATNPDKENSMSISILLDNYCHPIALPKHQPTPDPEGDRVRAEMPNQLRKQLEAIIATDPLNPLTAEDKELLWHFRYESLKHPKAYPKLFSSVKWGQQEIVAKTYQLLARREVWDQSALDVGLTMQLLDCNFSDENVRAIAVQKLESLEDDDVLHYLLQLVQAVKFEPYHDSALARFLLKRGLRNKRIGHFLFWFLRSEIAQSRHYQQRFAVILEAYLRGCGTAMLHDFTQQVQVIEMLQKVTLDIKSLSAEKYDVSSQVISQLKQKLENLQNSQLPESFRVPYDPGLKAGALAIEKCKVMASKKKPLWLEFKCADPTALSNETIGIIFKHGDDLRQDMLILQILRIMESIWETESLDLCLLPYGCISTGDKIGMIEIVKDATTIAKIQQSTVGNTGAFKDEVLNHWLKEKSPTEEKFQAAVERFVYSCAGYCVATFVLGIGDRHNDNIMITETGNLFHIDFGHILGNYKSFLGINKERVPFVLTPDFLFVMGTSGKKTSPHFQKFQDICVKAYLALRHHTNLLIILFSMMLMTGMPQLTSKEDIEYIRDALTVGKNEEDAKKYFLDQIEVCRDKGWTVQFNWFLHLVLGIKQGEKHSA
Chain of PI3K-alpha (P42336 whole entry, species assumed): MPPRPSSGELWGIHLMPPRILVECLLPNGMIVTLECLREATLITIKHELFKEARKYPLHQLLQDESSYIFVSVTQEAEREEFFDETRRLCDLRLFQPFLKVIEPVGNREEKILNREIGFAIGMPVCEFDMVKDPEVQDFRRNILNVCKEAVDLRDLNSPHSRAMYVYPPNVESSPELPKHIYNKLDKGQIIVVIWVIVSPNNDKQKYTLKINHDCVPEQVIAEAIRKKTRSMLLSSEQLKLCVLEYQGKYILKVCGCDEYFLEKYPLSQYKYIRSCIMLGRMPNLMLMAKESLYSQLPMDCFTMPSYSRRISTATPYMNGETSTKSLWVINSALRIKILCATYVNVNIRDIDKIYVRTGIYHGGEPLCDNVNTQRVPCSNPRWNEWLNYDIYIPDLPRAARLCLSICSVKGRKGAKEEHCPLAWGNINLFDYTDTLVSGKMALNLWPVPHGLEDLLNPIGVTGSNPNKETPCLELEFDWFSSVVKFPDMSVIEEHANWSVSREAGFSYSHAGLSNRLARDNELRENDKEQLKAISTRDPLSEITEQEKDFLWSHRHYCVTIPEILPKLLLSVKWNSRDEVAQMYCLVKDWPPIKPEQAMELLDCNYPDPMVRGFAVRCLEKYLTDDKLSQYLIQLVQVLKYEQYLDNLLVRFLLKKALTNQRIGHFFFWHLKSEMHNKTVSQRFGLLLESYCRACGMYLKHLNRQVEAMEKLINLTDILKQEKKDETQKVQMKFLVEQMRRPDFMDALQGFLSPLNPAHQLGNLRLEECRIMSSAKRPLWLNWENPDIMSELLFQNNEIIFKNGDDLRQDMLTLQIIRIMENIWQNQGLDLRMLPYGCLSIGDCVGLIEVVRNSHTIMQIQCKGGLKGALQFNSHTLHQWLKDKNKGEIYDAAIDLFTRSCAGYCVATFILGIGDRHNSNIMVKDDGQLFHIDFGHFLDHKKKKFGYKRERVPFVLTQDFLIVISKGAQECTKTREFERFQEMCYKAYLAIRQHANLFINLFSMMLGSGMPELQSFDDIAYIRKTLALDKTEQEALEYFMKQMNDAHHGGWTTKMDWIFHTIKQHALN
Chain of PI3K-alpha (P27986 whole entry partner, species assumed): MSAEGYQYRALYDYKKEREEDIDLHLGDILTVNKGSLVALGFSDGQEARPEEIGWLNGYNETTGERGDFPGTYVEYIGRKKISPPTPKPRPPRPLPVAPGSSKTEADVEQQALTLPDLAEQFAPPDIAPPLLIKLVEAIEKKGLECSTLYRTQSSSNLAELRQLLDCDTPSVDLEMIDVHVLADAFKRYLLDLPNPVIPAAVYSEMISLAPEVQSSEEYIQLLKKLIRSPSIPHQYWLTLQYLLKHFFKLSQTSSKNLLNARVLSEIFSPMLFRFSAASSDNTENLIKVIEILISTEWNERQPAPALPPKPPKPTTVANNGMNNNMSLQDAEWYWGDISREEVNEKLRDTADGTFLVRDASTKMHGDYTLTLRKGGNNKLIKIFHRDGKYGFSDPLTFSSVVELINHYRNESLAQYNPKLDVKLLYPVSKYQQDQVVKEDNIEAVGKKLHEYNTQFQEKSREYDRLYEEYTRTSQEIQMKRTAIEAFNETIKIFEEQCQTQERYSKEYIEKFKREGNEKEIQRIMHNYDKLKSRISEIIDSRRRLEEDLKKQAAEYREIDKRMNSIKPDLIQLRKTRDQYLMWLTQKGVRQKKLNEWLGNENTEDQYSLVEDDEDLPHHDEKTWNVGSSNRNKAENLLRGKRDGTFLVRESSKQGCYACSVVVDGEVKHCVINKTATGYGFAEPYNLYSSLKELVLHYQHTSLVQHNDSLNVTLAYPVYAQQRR

pIC50 (PI3K-alpha) | pIC50 (PI3K-gamma) | pIC50 (human TOR) | Compound
5.72 | 5.24 | 7.16 | Cn1cc(/C=C2\Oc3cc(O)cc(O)c3C2=O)c2c(-c3ccc(N4CCOCC4)nc3)cccc21 [Example 386, (2Z)-4,6-Dihydroxy-2-{[1-methyl-4-(6-morpholin-4-ylpyridin-3-yl)-1H-indol-3-yl]methylene}-1-benzofuran-3(2H)-one]
< 5.00 | < 5.00 | < 4.70 | COc1ccc2c(c1)c(/C=C1\Oc3cc(NC(C)=O)ccc3C1=O)cn2CCCN(C)C [Example 407, N-(2Z)-[2-({1-[3-(Dimethylamino)propyl]-5-methoxy-1H-indol-3-yl}methylene)-3-oxo-2,3-dihydro-1-benzofuran-6-yl]acetamide]
6.31 | 5.22 | 5.84 | CNC(=O)Nc1cc2c(cc1C)O/C(=C\c1c(C)n(CCN3CCN(C)CC3)c3ccc(OC)cc13)C2=O [Compound 640, 1-[(2Z)-2-({5-methoxy-2-methyl-1-[2-(4-methylpiperazin-1-yl)ethyl]-1H-indol-3-yl}methylene)-6-methyl-3-oxo-2,3-dihydro-1-benzofuran-5-yl]-3-methylurea]
9.00 | 8.39 | 8.52 | CNC(=O)Nc1ccc2c(c1)C(=O)/C(=C/c1c(-c3cnn(C)c3C)[nH]c3ccc(OC)cc13)O2 [Compound 723, 1-[(2Z)-2-{[2-(1,5-dimethyl-1H-pyrazol-4-yl)-5-methoxy-1H-indol-3-yl]methylidene}-3-oxo-2,3-dihydro-1-benzofuran-5-yl]-3-methylurea]
9.70 | 8.33 | 9.00 | CNC(=O)Nc1ccc2c(c1)C(=O)/C(=C/c1c(-c3c(C)n[nH]c3C)[nH]c3ccc(OC)cc13)O2 [Compound 625, 1-[(2Z)-2-{[2-(3,5-dimethyl-1H-pyrazol-4-yl)-5-methoxy-1H-indol-3-yl]methylidene}-3-oxo-2,3-dihydro-1-benzofuran-5-yl]-3-methylurea]
5.53 | 5.33 | 6.27 | CCOC(=O)c1ccc(-c2cccc3c2c(/C=C2\Oc4cc(O)cc(O)c4C2=O)cn3C)cc1 [Example 382, Ethyl 4-{3-[(Z)-(4,6-Dihydroxy-3-oxo-1-benzofuran-2(3H)-ylidene)methyl]-1-methyl-1H-indol-4-yl}benzoate]
6.51 | 5.45 | 4.82 | O=C1/C(=C/c2c[nH]c3ccc(Br)cc23)Oc2c1ccc(O)c2O [Example 58, (2Z)-2-[(5-bromo-1H-indol-3-yl)methylene]-6,7-dihydroxy-1-benzofuran-3(2H)-one]
8.46 | 7.74 | 6.87 | CCn1c(C)c(/C=C2\Oc3ccc(NC(=O)Nc4ccc(N(C)CCN(C)C)cc4)cc3C2=O)c2cc(OC)ccc21 [Compound 652, 1-(4-{[2-(dimethylamino)ethyl](methyl)amino}phenyl)-3-{(2Z)-2-[(1-ethyl-5-methoxy-2-methyl-1H-indol-3-yl)methylene]-3-oxo-2,3-dihydro-1-benzofuran-5-yl}urea]
9.10 | 6.94 | 7.80 | COc1ccc2c(c1)c(/C=C1\Oc3ccc(NC(=O)Nc4ccc(NC(=O)CCN(C)C)cc4)cc3C1=O)c(C)n2CCN1CCN(C)CC1 [Compound 685, N-[4-({[(2Z)-2-({5-methoxy-2-methyl-1-[2-(4-methylpiperazin-1-yl)ethyl]-1H-indol-3-yl}methylidene)-3-oxo-2,3-dihydro-1-benzofuran-5-yl]carbamoyl}amino)phenyl]-N3,N3-dimethyl-b-alaninamide]
9.05 | 7.71 | 6.11 | CCn1c(C)c(/C=C2\Oc3ccc(NC(=O)Nc4ccc(C(=O)C5CCN(C)CC5)cc4)cc3C2=O)c2cc(OC)ccc21 [Compound 651, 1-{(2Z)-2-[(1-ethyl-5-methoxy-2-methyl-1H-indol-3-yl)methylene]-3-oxo-2,3-dihydro-1-benzofuran-5-yl}-3-{4-[(1-methylpiperidin-4-yl)carbonyl]phenyl}urea]
8.15 | 5.76 | 7.72 | COc1ccc2c(c1)c(/C=C1\Oc3ccc(NC(=O)Nc4ccc(NCCN(C)C)cc4)cc3C1=O)c(C)n2CCN1CCN(C)CC1 [Compound 684, 1-(4-{[2-(dimethylamino)ethyl]amino}phenyl)-3-[(2Z)-2-({5-methoxy-2-methyl-1-[2-(4-methylpiperazin-1-yl)ethyl]-1H-indol-3-yl}methylidene)-3-oxo-2,3-dihydro-1-benzofuran-5-yl]urea]
8.12 | 6.71 | 6.94 | COc1ccc2c(c1)c(/C=C1\Oc3cc(O)cc(O)c3C1=O)c(C(=O)N1CCCC1)n2CCN1CCN(C)CC1 [Example 430, (2Z)-4,6-Dihydroxy-2-({5-methoxy-1-[2-(4-methylpiperazin-1-yl)ethyl]-2-(pyrrolidin-1-ylcarbonyl)-1H-indol-3-yl}methylene)-1-benzofuran-3(2H)-one]
9.30 | 8.60 | 8.30 | COc1ccc2[nH]c(-c3c(C)nn(C)c3C)c(/C=C3\Oc4ccc(NC(=O)Nc5cccnc5)cc4C3=O)c2c1 [Compound 635, 1-[(2Z)-2-{[5-methoxy-2-(1,3,5-trimethyl-1H-pyrazol-4-yl)-1H-indol-3-yl]methylene}-3-oxo-2,3-dihydro-1-benzofuran-5-yl]-3-pyridin-3-ylurea]
8.52 | 6.67 | 8.10 | COc1ccc2c(c1)c(/C=C1\Oc3ccc(NC(=O)Nc4cccnc4)cc3C1=O)c(C1CCCC1)n2CCN1CCN(C)CC1 [Compound 638, 1-[(2Z)-2-({2-cyclopentyl-5-methoxy-1-[2-(4-methylpiperazin-1-yl)ethyl]-1H-indol-3-yl}methylene)-3-oxo-2,3-dihydro-1-benzofuran-5-yl]-3-pyridin-3-ylurea]
5.79 | 5.66 | 5.97 | O=C1C(=Cc2c[nH]c3cccc(-c4ccccc4)c23)Oc2cc(O)cc(O)c21 [Example 269, 4,6-dihydroxy-2-[(4-phenyl-1H-indol-3-yl)methylene]-1-benzofuran-3(2H)-one]
9.40 | 7.72 | 7.51 | COc1ccc2c(c1)c(/C=C1\Oc3ccc(NC(=O)Nc4ccc(C(=O)N(C)CCN(C)C)cc4)cc3C1=O)c(C)n2CCN1CCN(C)CC1 [Compound 649, N-[2-(dimethylamino)ethyl]-4-({[(2Z)-2-({5-methoxy-2-methyl-1-[2-(4-methylpiperazin-1-yl)ethyl]-1H-indol-3-yl}methylene)-3-oxo-2,3-dihydro-1-benzofuran-5-yl]carbamoyl}amino)-N-methylbenzamide]
8.10 | 7.17 | 6.43 | CCn1c(C)c(/C=C2\Oc3ccc(NC(=O)Nc4ccc(S(=O)(=O)N(C)CCN(C)C)cc4)cc3C2=O)c2cc(OC)ccc21 [Compound 679, N-[2-(dimethylamino)ethyl]-4-[({(2Z)-2-[(1-ethyl-5-methoxy-2-methyl-1H-indol-3-yl)methylidene]-3-oxo-2,3-dihydro-1-benzofuran-5-yl}carbamoyl)amino]-N-methylbenzenesulfonamide]
6.00 | 6.12 | 6.14 | COc1ccc(-c2cccc3[nH]cc(/C=C4\Oc5cc(O)cc(O)c5C4=O)c23)cc1 [Example 371, (2Z)-4,6-dihydroxy-2-{[4-(4-methoxyphenyl)-1H-indol-3-yl]methylene}benzofuran-3(2H)-one]
9.52 | 8.67 | 5.61 | COc1ccc2c(c1)c(/C=C1\Oc3ccc(NC(=O)Nc4ccc(C(=O)N5CCN(C)CC5)cc4)cc3C1=O)c(C)n2C [Compound 658, 1-{(2Z)-2-[(5-methoxy-1,2-dimethyl-1H-indol-3-yl)methylidene]-3-oxo-2,3-dihydro-1-benzofuran-5-yl}-3-{4-[(4-methylpiperazin-1-yl)carbonyl]phenyl}urea]
6.48 | 6.52 | 5.08 | O=C1/C(=C/c2c(-c3ccccc3)[nH]c3ccccc23)Oc2c(O)cccc21 [Example 67, (2Z)-7-hydroxy-2-[(2-phenyl-1H-indol-3-yl)methylene]-1-benzofuran-3(2H)-one]
7.31 | 6.00 | 5.71 | COc1ccc2c(c1)c(/C=C1\Oc3cc(O)ccc3C1=O)c(C)n2CCN1CCCC1 [Example 452, (2Z)-6-Hydroxy-2-{[5-methoxy-2-methyl-1-(2-pyrrolidin-1-ylethyl)-1H-indol-3-yl]methylene}-1-benzofuran-3(2H)-one]
 | < 5.00 | < 4.70 | CNC(=O)Nc1ccc2c(c1)O/C(=C\c1cn(CCCN(C)C)c3ccc(OC)cc13)C2=O [Example 406, 1-(2Z)-[2-({1-[3-(Dimethylamino)propyl]-5-methoxy-1H-indol-3-yl}methylene)-3-oxo-2,3-dihydro-1-benzofuran-6-yl]-3-methyl urea]
< 5.00 |  | < 4.70 | Cn1cc(C=C2Oc3cc(O)ccc3C2=O)c2ccccc21 [Example 8, 6-hydroxy-2-[(1-methyl-1H-indol-3-yl)methylene]-1-benzofuran-3(2H)-one]
5.81 |  | 5.85 | Cn1c(-c2ccc(F)c(Cl)c2)c(C=C2Oc3cc(O)cc(O)c3C2=O)c2ccccc21 [Example 199, 2-{[2-(3-chloro-4-fluorophenyl)-1-methyl-1H-indol-3-yl]methylene}-4,6-dihydroxy-1-benzofuran-3(2H)-one]

Compound | pIC50 (PI3K-alpha) | pIC50 (PI3K-gamma) | pIC50 (human TOR)
CNC(=O)Nc1ccc2c(c1)C(=O)/C(=C/c1c(-c3c(C)noc3C)n(CCN3CCN(C)CC3)c3ccc(OC)cc13)O2 [Compound 623, 1-[(2Z)-2-({2-(3,5-dimethylisoxazol-4-yl)-5-methoxy-1-[2-(4-methylpiperazin-1-yl)ethyl]-1H-indol-3-yl}methylidene)-3-oxo-2,3-dihydro-1-benzofuran-5-yl]-3-methylurea] | 8.07 | 6.53 | 7.22

From US20090311217A1, “3-SUBSTITUTED-1H-INDOLE COMPOUNDS, THEIR USE AS MTOR KINASE AND PI3 KINASE INHIBITORS, AND THEIR SYNTHESES” (priority 2008, published 2009)
